The text below walks through data of patent US20250346613A1, “BORIC ACID PROTEASOME INHIBITOR AND USE THEREOF” (ARTIVILA BIOPHARMA, priority 2022, published 2025).

A short description of this series: Blood concentration measurement of orally-administrated mice. The series is classed as in vivo, C57BL/6JNifdc mice. The settings on record: C57BL/6JNifdc, mouse, plasma, oral, 30 mg/kg; for concentration at 0.5 h: read-out: Average blood compound concentration (μM) 0.5 h; for concentration at 1 h: read-out: Average blood compound concentration (μM) 1.0 h; for concentration at 1.5 h: read-out: Average blood compound concentration (μM) 1.5 h; for concentration at 2 h: read-out: Average blood compound concentration (μM) 2.0 h. Here is the method: The C57BL/6JNifdc mice used in this experiment were provided by Zhejiang Vital River Laboratory Animal Technology Co., Ltd. The compounds were dissolved in DMSO/Solutol/Saline (v/v/v=10/10/80) as a stock solution (3 mg/mL). The stock solution was administrated orally to 6 C57BL/6JNifdc mice at a dose of 30 mg/kg. Blood was collected from the orbital venous plexus at 0.5 h, 1 h, 1.5 h, and 2 h after oral administration.
Approximately 200 μL of blood samples were collected into EDTAK2 Blood Collection tubes and then immediately centrifuged at 10,000 rpm for 5 min. 66 μL of plasma supernatant was added with 198 μL of acetonitrile (Energy), the resulting mixture was shaken on a vortex for 5 min, and then immediately centrifuged at 13000 rpm for 8 min. 200 μL of supernatant was taken for blood compound concentration measurement.
The compound was accurately weighed and dissolved in acetonitrile to a concentration of 100 μg/mL. 50 μL of compound was pipetted and added to 4.95 mL of acetonitrile/water (v/v=3/1) solution to obtain 1000 ng/mL mother liquid. 650 μL of the mother liquid was taken and sequentially diluted with a solution of acetonitrile/water (v/v=3/1) in a 2-fold gradient to obtain standard samples with various concentrations of 500 ng/mL, 250 ng/mL, 125 ng/mL, 62.5 ng/mL, and 31.25 ng/mL.
Standard solutions with concentrations of 1000 ng/mL, 500 ng/mL, 250 ng/mL, 125 ng/mL, 62.5 ng/mL, and 31.25 ng/mL were measured by using LC-MS (LC-MS 2020+LC-2030 Plus, Shimadzu) SIM mode to obtain a calibration curve. The treated blood samples were measured by this method and then subjected to quantitative analysis by using the calibration curve to obtain compound concentration data of each treated blood sample.
The data were exported and the average blood compound concentration at each sampling time was calculated.
Blood compound concentration=compound concentration in treated blood sample×4/molecular weight of the compound. The average blood compound concentration is the average of the compound concentrations in the blood at each sampling time.

In the case of `COc1cccc(CCNC(=O)C(C)C(=O)N[C@@H](Cc2coc3ccccc23)B(O)O)c1` (stereo partly drawn) [Example 63, ((1R)-2-(benzofuran-3-yl)-1-(3-((3-methoxyphenylethyl)amino)-2-methyl-3-oxopropionamido)ethyl)boric acid], the concentration at 0.5 h stood at 23 µM, the concentration at 1 h is 24 µM, the concentration at 1.5 h worked out at 15 µM and the concentration at 2 h worked out at 16 µM.
Taken in the same sequence, the figures for `Cc1ccc(C[C@H](NC(=O)C(C)C(=O)NCc2ccc(Cl)cc2Cl)B(O)O)cc1` (stereo partly drawn) [Example 59, ((1R)-1-(3-((2,4-dichlorobenzyl)amino)-2-methyl-3-oxopropionamido)-2-(p-tolyl)ethyl)boric acid] were 23 µM, 20 µM, 22 µM and 16 µM.
